The values below come from ChEMBL document CHEMBL3991601, “The target landscape of clinical kinase drugs” (Science, 2017).

The source made the active and inactive calls.

Usually Kd stands for the free concentration of one partner at which half of the binding sites on the other are occupied at equilibrium, for simple one-to-one binding.

Assay [1] addresses T1, ATP-dependent RNA helicase DHX30 (Homo sapiens, UniProt Q7L2E3).
T1 sequence (Q7L2E3 whole entry): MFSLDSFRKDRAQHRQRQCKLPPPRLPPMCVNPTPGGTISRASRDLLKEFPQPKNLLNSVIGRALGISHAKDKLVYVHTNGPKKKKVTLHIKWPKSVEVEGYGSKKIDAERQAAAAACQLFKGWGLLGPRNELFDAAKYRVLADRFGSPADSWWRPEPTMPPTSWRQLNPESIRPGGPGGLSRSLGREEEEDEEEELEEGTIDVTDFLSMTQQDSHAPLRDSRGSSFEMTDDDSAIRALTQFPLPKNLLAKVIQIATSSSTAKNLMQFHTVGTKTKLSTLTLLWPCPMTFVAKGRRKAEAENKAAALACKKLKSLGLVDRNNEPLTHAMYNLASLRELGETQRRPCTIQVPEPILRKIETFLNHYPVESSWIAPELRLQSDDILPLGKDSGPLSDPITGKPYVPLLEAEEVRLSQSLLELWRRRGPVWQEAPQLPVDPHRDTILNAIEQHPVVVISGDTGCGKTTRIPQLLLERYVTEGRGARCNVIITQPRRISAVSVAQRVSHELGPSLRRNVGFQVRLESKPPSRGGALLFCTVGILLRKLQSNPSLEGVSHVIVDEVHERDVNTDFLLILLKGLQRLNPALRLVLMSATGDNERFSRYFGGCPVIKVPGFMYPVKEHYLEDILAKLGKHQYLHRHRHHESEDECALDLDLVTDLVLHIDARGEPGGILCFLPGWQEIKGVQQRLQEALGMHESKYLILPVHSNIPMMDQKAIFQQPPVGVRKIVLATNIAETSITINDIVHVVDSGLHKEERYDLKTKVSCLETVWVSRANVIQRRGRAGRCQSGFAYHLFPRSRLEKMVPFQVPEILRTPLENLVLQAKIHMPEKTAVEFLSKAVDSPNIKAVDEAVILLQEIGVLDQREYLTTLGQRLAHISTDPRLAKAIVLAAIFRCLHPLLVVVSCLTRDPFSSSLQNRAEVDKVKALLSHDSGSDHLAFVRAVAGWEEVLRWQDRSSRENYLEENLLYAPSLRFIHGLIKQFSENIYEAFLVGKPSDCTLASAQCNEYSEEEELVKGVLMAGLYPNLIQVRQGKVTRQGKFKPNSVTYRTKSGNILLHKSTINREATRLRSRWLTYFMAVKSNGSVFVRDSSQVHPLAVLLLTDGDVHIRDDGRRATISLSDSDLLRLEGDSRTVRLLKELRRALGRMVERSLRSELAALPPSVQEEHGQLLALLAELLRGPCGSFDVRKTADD

The target in assay [2] is Hepatocyte growth factor receptor (Homo sapiens, UniProt P08581).
The target in assay [3] is High affinity nerve growth factor receptor (Homo sapiens, UniProt P04629).
The target of assay [4] is T2, Cyclin-dependent kinase-like 5 (Homo sapiens, UniProt O76039).
T2 sequence (O76039 whole entry): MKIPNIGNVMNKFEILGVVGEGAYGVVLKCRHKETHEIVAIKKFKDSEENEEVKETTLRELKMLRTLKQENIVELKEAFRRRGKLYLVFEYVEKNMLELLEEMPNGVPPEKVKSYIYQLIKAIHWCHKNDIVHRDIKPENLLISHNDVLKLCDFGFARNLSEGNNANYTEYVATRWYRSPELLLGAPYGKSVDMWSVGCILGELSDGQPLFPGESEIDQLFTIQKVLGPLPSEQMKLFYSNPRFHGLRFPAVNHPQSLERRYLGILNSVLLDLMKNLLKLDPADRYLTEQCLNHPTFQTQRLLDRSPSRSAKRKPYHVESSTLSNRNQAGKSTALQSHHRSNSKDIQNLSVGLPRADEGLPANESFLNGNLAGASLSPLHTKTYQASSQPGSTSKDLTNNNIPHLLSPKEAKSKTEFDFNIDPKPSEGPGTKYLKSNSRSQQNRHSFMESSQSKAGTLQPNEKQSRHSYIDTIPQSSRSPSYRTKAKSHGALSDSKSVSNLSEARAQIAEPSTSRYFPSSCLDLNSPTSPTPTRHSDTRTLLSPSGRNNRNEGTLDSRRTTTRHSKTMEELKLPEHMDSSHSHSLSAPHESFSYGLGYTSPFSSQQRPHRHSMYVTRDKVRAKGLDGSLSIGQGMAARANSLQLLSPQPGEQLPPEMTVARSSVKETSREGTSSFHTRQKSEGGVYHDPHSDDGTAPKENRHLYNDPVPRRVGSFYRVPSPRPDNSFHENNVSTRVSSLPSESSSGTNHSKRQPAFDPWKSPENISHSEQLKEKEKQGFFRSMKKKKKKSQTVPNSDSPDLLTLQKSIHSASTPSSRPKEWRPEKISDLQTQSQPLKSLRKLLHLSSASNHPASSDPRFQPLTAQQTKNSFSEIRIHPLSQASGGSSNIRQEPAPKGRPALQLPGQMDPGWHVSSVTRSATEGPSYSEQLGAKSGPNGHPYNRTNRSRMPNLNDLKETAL

Assay [5] has as its target Dual specificity testis-specific protein kinase 1 (Homo sapiens, UniProt Q15569).
Note: in the data inactive means no Kd found up to 30 µM.

Sequence of High affinity nerve growth factor receptor (P04629 whole entry): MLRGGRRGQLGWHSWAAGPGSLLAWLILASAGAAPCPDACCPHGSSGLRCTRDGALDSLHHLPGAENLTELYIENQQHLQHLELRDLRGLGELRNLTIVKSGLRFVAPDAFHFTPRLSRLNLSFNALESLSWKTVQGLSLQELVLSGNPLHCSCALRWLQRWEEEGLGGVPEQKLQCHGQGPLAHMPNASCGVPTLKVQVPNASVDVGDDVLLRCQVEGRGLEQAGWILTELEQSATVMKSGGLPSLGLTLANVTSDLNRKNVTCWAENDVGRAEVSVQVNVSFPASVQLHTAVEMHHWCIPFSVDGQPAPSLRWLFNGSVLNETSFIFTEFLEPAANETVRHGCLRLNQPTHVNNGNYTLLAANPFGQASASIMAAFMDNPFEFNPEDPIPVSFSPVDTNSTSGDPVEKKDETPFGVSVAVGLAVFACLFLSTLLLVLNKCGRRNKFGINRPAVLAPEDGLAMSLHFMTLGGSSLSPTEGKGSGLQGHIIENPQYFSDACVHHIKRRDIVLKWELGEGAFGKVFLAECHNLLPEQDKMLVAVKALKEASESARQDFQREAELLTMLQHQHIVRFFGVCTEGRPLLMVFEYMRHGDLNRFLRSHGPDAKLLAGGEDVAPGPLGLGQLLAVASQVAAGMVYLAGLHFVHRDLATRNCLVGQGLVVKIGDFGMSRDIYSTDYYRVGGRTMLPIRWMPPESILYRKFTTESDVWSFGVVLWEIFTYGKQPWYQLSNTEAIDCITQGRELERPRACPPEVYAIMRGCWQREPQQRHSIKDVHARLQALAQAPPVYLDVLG
Sequence of Hepatocyte growth factor receptor (P08581 whole entry): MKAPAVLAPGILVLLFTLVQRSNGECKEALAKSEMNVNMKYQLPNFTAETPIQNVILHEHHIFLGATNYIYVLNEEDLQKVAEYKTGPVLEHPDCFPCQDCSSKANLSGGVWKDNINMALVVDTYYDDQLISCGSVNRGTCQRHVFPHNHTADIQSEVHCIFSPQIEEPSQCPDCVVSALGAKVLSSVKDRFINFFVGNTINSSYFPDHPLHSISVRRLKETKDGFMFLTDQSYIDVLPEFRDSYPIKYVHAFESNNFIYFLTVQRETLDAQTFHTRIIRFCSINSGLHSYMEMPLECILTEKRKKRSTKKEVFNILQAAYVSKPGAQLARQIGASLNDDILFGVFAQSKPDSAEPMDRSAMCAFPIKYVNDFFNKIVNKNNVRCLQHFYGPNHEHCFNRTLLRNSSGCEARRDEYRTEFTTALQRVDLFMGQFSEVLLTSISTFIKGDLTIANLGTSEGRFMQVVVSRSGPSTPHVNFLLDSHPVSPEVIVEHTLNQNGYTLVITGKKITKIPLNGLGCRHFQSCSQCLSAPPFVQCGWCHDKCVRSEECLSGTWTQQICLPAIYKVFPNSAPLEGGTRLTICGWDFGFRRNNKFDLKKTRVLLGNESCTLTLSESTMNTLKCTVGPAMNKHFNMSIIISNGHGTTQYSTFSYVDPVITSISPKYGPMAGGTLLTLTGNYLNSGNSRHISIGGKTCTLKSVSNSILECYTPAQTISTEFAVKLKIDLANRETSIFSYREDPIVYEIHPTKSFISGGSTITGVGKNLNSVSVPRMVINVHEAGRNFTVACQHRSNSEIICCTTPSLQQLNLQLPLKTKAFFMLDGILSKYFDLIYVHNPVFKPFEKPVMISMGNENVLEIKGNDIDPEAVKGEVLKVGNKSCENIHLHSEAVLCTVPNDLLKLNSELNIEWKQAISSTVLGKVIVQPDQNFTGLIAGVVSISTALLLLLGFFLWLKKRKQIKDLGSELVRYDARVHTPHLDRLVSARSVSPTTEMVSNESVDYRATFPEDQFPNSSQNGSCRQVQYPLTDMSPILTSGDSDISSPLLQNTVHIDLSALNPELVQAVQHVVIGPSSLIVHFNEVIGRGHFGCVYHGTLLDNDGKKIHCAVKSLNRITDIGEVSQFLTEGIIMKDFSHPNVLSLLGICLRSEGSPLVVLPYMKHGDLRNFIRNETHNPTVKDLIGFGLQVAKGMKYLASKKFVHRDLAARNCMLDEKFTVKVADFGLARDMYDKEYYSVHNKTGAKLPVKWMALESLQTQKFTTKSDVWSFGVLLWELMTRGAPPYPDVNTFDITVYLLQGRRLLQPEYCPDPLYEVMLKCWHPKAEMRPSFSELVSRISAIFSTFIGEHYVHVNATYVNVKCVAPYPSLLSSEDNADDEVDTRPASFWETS
Sequence of Dual specificity testis-specific protein kinase 1 (Q15569 whole entry): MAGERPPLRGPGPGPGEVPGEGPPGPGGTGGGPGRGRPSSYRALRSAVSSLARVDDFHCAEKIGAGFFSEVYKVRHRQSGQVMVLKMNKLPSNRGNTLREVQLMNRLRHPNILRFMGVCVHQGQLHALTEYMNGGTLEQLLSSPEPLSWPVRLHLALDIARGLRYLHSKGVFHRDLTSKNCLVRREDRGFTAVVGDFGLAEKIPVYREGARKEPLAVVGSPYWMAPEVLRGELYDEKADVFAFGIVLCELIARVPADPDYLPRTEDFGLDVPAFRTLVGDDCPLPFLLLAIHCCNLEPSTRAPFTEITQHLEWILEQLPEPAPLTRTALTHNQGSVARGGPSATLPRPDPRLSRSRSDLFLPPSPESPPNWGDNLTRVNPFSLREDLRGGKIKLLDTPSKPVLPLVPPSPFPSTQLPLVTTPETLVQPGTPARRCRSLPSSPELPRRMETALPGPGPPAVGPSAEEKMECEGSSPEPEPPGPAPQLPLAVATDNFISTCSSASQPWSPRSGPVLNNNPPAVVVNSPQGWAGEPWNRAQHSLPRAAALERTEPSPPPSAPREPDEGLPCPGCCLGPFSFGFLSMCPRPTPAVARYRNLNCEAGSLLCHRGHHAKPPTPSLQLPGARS

Consider `CN1N=C(N)c2cn([C@@H]3O[C@H](COP(=O)(O)O)[C@@H](O)[C@H]3O)c3ncnc1c23` [TRICIRIBINE PHOSPHATE], for which the Kd in assay [1], in assay [2] and in assay [3] was > 30 µM (inactive) each time.
As for `CNC(=O)CN1CCC(Oc2cc3c(Nc4cccc(Cl)c4F)ncnc3cc2OC)CC1` [SAPITINIB], the Kd in assay [4], in assay [2], in assay [3] and in assay [5] was > 30 µM (inactive) in each case.
Regarding `Cc1cc(Nc2cc(N3CCN(C)CC3)nc(/C=C/c3ccccc3)n2)n[nH]1` [ENMD-2076], the Kd in assay [1] and in assay [5] was > 30 µM (inactive) each time.
Regarding `O=C(Nc1cccc(Cl)c1)Nc1ncc(CCNc2ncnc3ccsc23)s1` [SNS-314], the Kd in assay [4] and in assay [1] was > 30 µM (inactive) in each case.
With `Cc1ccc(-n2nc(C(C)(C)C)cc2NC(=O)NCc2cc(F)ccc2Oc2ccc3c(cnn3CCO)c2)cc1` [PEXMETINIB], the Kd in assay [1] is > 30 µM (inactive); in assay [2], > 30 µM (inactive); in assay [3], 3.13 µM (active); in assay [5], > 30 µM (inactive).
Turning to `CN1CCN(c2ccc3nc(-c4c(N)c5c(F)cccc5[nH]c4=O)[nH]c3c2)CC1` [DOVITINIB], the Kd in assay [1] is > 30 µM (inactive).
On to `CNS(=O)(=O)Nc1nccc(Cc2c(C)c3ccc(Oc4ncccn4)cc3oc2=O)c1F` [AVUTOMETINIB], for which the Kd in assay [1] and in assay [2] was > 30 µM (inactive) throughout.
Regarding `C1=C/COCc2cc(ccc2OCCN2CCCC2)Nc2nccc(n2)-c2cccc(c2)COC/1` [PACRITINIB], the Kd in assay [4], in assay [2] and in assay [3] was > 30 µM (inactive) in each case.
Take `O=C(O)[C@]1(Cc2cccc(Nc3nccs3)n2)CC[C@@H](Oc2cccc(Cl)c2F)CC1` [MK-5108]: the Kd in assay [4], in assay [1], in assay [2], in assay [3] and in assay [5] was > 30 µM (inactive) throughout.
For the compound `CN1CCC(CNc2ccc3ncc(-c4cccc(OC(F)(F)F)c4)n3n2)CC1` [SGI-1776], the Kd in assay [4], in assay [2], in assay [3] and in assay [5] was > 30 µM (inactive) throughout.
For `CC(=O)Nc1cccc(-n2c(=O)n(C3CC3)c(=O)c3c(Nc4ccc(I)cc4F)n(C)c(=O)c(C)c32)c1` [TRAMETINIB], the Kd in assay [4], in assay [1], in assay [2], in assay [3] and in assay [5] was > 30 µM (inactive) throughout.
With `Cn1ncc(Cl)c1-c1cc(C(=O)N[C@H](CN)Cc2cccc(F)c2)sc1Cl` [AFURESERTIB], the Kd in assay [1], in assay [3] and in assay [5] was > 30 µM (inactive) each time.
In the case of `COCCNCc1ccc(-c2cc3nccc(Oc4ccc(NC(=S)NC(=O)Cc5ccc(F)cc5)cc4F)c3s2)nc1` [GLESATINIB], the Kd in assay [4], in assay [1], in assay [3] and in assay [5] was > 30 µM (inactive) throughout.
As for `COC(=O)[C@@]1(O)C[C@H]2O[C@]1(C)n1c3ccccc3c3c4c(c5c6ccccc6n2c5c31)C(=O)NC4` [K-252A], the Kd in assay [4], in assay [1], in assay [2] and in assay [5] was > 30 µM (inactive) throughout.
For `N[C@@H]1CCCN(c2c(/C=C3\SC(=O)NC3=O)cccc2-c2ccccc2)C1`, the Kd in assay [4], in assay [1], in assay [2] and in assay [3] was > 30 µM (inactive) each time.
Turning to `COc1cc2nccc(Oc3ccc(NC(=O)NC4CC4)c(Cl)c3)c2cc1C(N)=O` [LENVATINIB], the Kd in assay [2] and in assay [5] was > 30 µM (inactive) throughout.
Consider `CCn1c(=O)c(-c2cc[nH]n2)cc2c(C)nc(N)nc21` [VOXTALISIB], for which the Kd in assay [3] and in assay [5] was > 30 µM (inactive) throughout.
`Cn1cc(-c2ccc(F)c(C(F)(F)F)c2)nc1C1CCN(c2ncnc3[nH]ncc23)CC1` [LY-2584702]: the Kd in assay [4], in assay [2], in assay [3] and in assay [5] was > 30 µM (inactive) each time.
Regarding `Cc1cn(-c2cc(NC(=O)c3ccc(C)c(Nc4nccc(-c5cccnc5)n4)c3)cc(C(F)(F)F)c2)cn1` [NILOTINIB], the Kd in assay [1] is > 30 µM (inactive).
With `CNC(=O)c1ccc(C)c(-n2c(C)cc(OCc3ccc(F)cc3F)c(Br)c2=O)c1` [PH-797804], the Kd in assay [1], in assay [2] and in assay [5] was > 30 µM (inactive) throughout.
Turning to `CNC(=O)c1cc(Oc2ccc(NC(=O)Nc3ccc(Cl)c(C(F)(F)F)c3)c(F)c2)ccn1` [REGORAFENIB], the Kd in assay [1], in assay [2] and in assay [3] was > 30 µM (inactive) each time.
On to `Cc1c(F)cc(C(=O)NC2CC2)cc1-c1ccc(C(=O)NCC(C)(C)C)cn1` [LOSMAPIMOD], for which the Kd in assay [1], in assay [3] and in assay [5] was > 30 µM (inactive) throughout.
Consider `CC[C@@H]1C(=O)N(C)c2cnc(Nc3ccc(C(=O)N[C@H]4CC[C@H](N5CCN(CC6CC6)CC5)CC4)cc3OC)nc2N1C(C)C` [VOLASERTIB], for which the Kd in assay [1], in assay [2], in assay [3] and in assay [5] was > 30 µM (inactive) in each case.
As for `O=c1sn(-c2cccc3ccccc23)c(=O)n1Cc1ccccc1` [TIDEGLUSIB], the Kd in assay [4], in assay [3] and in assay [5] was > 30 µM (inactive) throughout.
As for `CO[C@H]1C[C@@H]2CC[C@@H](C)[C@@](O)(O2)C(=O)C(=O)N2CCCC[C@H]2C(=O)O[C@H]([C@H](C)C[C@@H]2CC[C@@H](OCCO)[C@H](OC)C2)CC(=O)[C@H](C)/C=C(\C)[C@@H](O)[C@@H](OC)C(=O)[C@H](C)C[C@H](C)/C=C/C=C/C=C/1C` [EVEROLIMUS], the Kd in assay [1], in assay [2], in assay [3] and in assay [5] was > 30 µM (inactive) each time.
As for `CC(C)Nc1cc(-c2c[nH]c(C(=O)N[C@H](CO)c3cccc(Cl)c3)c2)c(Cl)cn1` [ULIXERTINIB], the Kd in assay [4], in assay [2], in assay [3] and in assay [5] was > 30 µM (inactive) throughout.
